Experimental data as given in PMC5496796 (Clinical cancer research : an official journal of the …, 2017).
“Also recorded” adds a separate entry of the source. Read-outs that look alike come from different tables or passages of the source.

Experiments:
[1] = tested on: patients with relapsed or refractory multiple myeloma
[2] = Plasma pharmacokinetics; format: in vivo, human
[3] = tested on: acetylated tubulin (a substrate of HDAC6); details: for change in acetylated tubulin: 1 hour after first dose
[4] = tested on: relapsed or refractory multiple myeloma; experiment: Treatment response by IMWG criteria, phase 1/2 trial; format: in vivo, human; details: single-agent ricolinostat
[5] = tested on: acetylated histones (a substrate of class I HDACs); experiment: Acetylated histones in CD3+ peripheral blood lymphocytes; format: in vivo, human; details: 1 hour after first dose
[6] = tablet form; ref [25]; cited from earlier work
[7] = single agent ricolinostat, N=15
[8] = single-agent ricolinostat, 15 patients
[9] = initial 160 mg daily oral dose, cohort 4′, n=14, mean ± SD
[10] = single agent ricolinostat 160 mg
[11] = single agent ricolinostat 240 mg

O=C(CCCCCCNC(=O)c1cnc(N(c2ccccc2)c2ccccc2)nc1)NO [ricolinostat]
toxicity, overall ([1]; single agent ricolinostat therapy): neither significant toxicity
Amylase elevation, All grades [1, 7]: 0 (0) N (%)
Amylase elevation, Grade 3/4 [1, 7]: 0 (0) N (%)
Anemia, All grades [1, 7]: 3 (20) N (%)
Anemia, Grade 3/4 [1, 7]: 1 (7) N (%)
Blood creatinine elevation, All grades [1, 7]: 5 (33) N (%)
Blood creatinine elevation, Grade 3/4 [1, 7]: 0 (0) N (%)
Bronchitis, All grades [1, 7]: 0 (0) N (%)
Bronchitis, Grade 3/4 [1, 7]: 0 (0) N (%)
Diarrhea, All grades [1, 7]: 3 (20) N (%)
Dyspnea, All grades [1, 7]: 1 (7) N (%)
Dyspnea, Grade 3/4 [1, 7]: 0 (0) N (%)
Fatigue, All grades [1, 7]: 4 (27) N (%)
Febrile neutropenia, All grades [1, 7]: 0 (0) N (%)
Febrile neutropenia, Grade 3/4 [1, 7]: 0 (0) N (%)
Hyperglycemia, All grades [1, 7]: 0 (0) N (%)
Hyperglycemia, Grade 3/4 [1, 7]: 0 (0) N (%)
Hypertension, All grades [1, 7]: 0 (0) N (%)
Hypertension, Grade 3/4 [1, 7]: 0 (0) N (%)
Hypokalemia, All grades [1, 7]: 1 (7) N (%)
Hypokalemia, Grade 3/4 [1, 7]: 0 (0) N (%)
Hyponatremia, All grades [1, 7]: 1 (7) N (%)
Hyponatremia, Grade 3/4 [1, 7]: 0 (0) N (%)
Hypophosphatemia, All grades [1, 7]: 2 (13) N (%)
Hypophosphatemia, Grade 3/4 [1, 7]: 1 (7) N (%)
Influenza, All grades [1, 7]: 0 (0) N (%)
Influenza, Grade 3/4 [1, 7]: 0 (0) N (%)
Nausea, All grades [1, 7]: 2 (13) N (%)
Nausea, Grade 3/4 [1, 7]: 0 (0) N (%)
Neutropenia, All grades [1, 7]: 2 (13) N (%)
Neutropenia, Grade 3/4 [1, 7]: 1 (7) N (%)
Peripheral neuropathy, All grades [1, 7]: 0 (0) N (%)
Peripheral neuropathy, Grade 3/4 [1, 7]: 0 (0) N (%)
Pneumonia, All grades [1, 7]: 0 (0) N (%)
Pneumonia, Grade 3/4 [1, 7]: 0 (0) N (%)
Pulmonary embolism, All grades [1, 7]: 0 (0) N (%)
Pulmonary embolism, Grade 3/4 [1, 7]: 0 (0) N (%)
Thrombocytopenia, All grades [1, 7]: 2 (13) N (%)
Thrombocytopenia, Grade 3/4 [1, 7]: 2 (13) N (%)
Transaminase elevation, All grades [1, 7]: 1 (7) N (%)
Transaminase elevation, Grade 3/4 [1, 7]: 0 (0) N (%)
Vomiting, All grades [1, 7]: 0 (0) N (%)
Vomiting, Grade 3/4 [1, 7]: 0 (0) N (%)
dose limiting toxicities ([1]; single-agent dose escalation, 40-360 mg daily): did not observe any dose limiting toxicities
maximum tolerated dose ([1]; single-agent dose escalation, up to 360 mg qd): did not identify a maximum tolerated dose
QT interval prolongation, serial triplicate electrocardiograms ([1]; single-agent ricolinostat): no evidence of QT interval prolongation
discontinuation because of a treatment emergent adverse event ([1]; single-agent ricolinostat): No patient discontinued
adverse events observed during therapy: anemia [1, 8]: 20%
adverse events observed during therapy: diarrhea [1, 8]: 20%
adverse events observed during therapy: fatigue [1, 8]: 27%
adverse events observed during therapy: renal insufficiency [1, 8]: 33%
drug accumulation upon repeated dosing ([2]; bid dosing): 1.01 ± 0.26
Cmax ([2]; human, plasma, oral, mean Cmax on day 11, bid administration, n=10): 524 ± 150 ng/mL
Cmax ([2]; human, plasma, oral, mean Cmax on day 11, qd dosing, n=11): 648 ± 200 ng/mL
half-life ([2]; human, plasma, po, 160 mg): 3.26 ± 0.46 h
apparent oral clearance [2, 9]: 111 ± 25 L/h
apparent oral total body volume of distribution [2, 9]: 521 ± 166 L
dose dependence of exposure (Cmax) ([2]; oral 40 to 360 mg, alone or with bortezomib): plateau in exposure at dose levels ≥160 mg; also recorded: no significant increase at doses greater than 160 mg
median time of maximum observed concentration in plasma (Cmax) ([2]; oral, initial dose and dose on day 11, range 0.25–2.0 hours): 1.0 h
drug accumulation upon repeated dosing ([2]; qd dosing): 1.10 ± 0.20
acetylated tubulin in peripheral blood lymphocytes, dose dependence ([3]; samples taken during therapy): dose-dependent increases
change in acetylated tubulin [3, 10]: increase
change in acetylated tubulin [3, 11]: upward trend
duration of stable disease, median ([4]; 6 patients, range 5 – 30): 11 weeks
clinical response (minor or partial response) ([4]; 15 patients): nor clinical responses; also recorded: no patients had a minor or partial response
patients with stable disease ([4]; of the 15 patients): 6
change in histone acetylation [5, 10]: unchanged
change in histone acetylation [5, 11]: qualitative increase

O=C(CCCCCCNC(=O)c1cnc(N(c2ccccc2)c2ccccc2Cl)nc1)NO [ACY-241]
exposure plateau [6]: does not exhibit the exposure plateau

CC(C)C[C@H](NC(=O)[C@H](Cc1ccccc1)NC(=O)c1cnccn1)B(O)O [bortezomib, reference compound]
time of observed Cmax of bortezomib (first plasma sample) ([2]; after i.v. injection, days 1 and 11, with few exceptions): 15 min
Cmax ([2]; human, plasma, mean Cmax of bortezomib, day 1 dose, cohort 4′ ([…]^2 with ricolinostat 160 mg QD), n=14): 24 ± 11 ng/mL
Cmax ([2]; human, plasma, mean Cmax of bortezomib, day 11 dose, cohort 4′ ([…]^2 with ricolinostat 160 mg QD), n=11): 40 ± 15 ng/mL
